Values quoted from earlier work as cited in US9145409B2, “Benzhydryl derivatives” (CHIESI FARMACEUTICI S.p.A., priority 2013, dated 2015).

Columns and labels:
[1] = system: smoking model of COPD in mice
[2] = system: COPD patients
[3] = COPD patients, oral, given over 4 weeks
[4] = clinical trials, 500 mg once daily given over 12 months
[5] = patients with severe disease, frequent exacerbations and mucus hypersecretion

O=C(Nc1c(Cl)cncc1Cl)c1ccc(OC(F)F)c(OCC2CC2)c1 [roflumilast]
lung inflammation and emphysema [1]: inhibits lung inflammation and emphysema
CXCL8 concentrations in sputum [2, 3]: significantly reduces
reduction of the numbers of neutrophils in sputum [2, 3]: 36%
clinical benefit as add-on ([2]; added to salmeterol or tiotropium): provides clinical benefit
exacerbations and quality of life [2, 4]: little effect in reducing exacerbations or improving quality of life
lung function [2, 4]: improved lung function in COPD patients to a small extent
improvement of FEV 1 [2, 5]: approximately 50 mL
reduction of exacerbation [2, 5]: about 15%
